Consider ten compounds from patent publication US7056734B1, “Differentiation of non-insulin producing cells into insulin producing cells by GLP-1 or exendin-4 and uses thereof” (The United States of America as represented by the …, priority 1998, dated 2006).

Assay [1] deals with AR42J cells. In words: Protein tyrosine phosphorylation in AR42J cells. It counts as cell-based, rat. The conditions noted are these: 5 min treatment. The method, then: Tyrosine Phosphorylation Studies. […] Then the medium was removed and fresh KRBB was added, followed by placing the cell on a 37° C. hot plate for 5 min. After addition of various reagents (see FIG. 24) for 5 min the reaction was terminated by submersion of the dishes in liquid nitrogen. The frozen cells were scraped and lysed in RIPA buffer. […] The blots were developed using the ECL chemiluminescence detection system (Amersham).

Assay [2] concerns AR42J cells. In words: Amylase release from AR42J cells. It counts as cell-based, rat. The conditions noted are these: for effect on CCK-induced amylase release: combined with CCK (1 nM), genestein 300 μM. The protocol: Cell Culture. AR42J cells were maintained in Dulbecco's modified Eagle's medium (Gibco, Grand Island, N.Y.) (DMEM) supplemented with 10% Fetal Calf Serum, 100 IU/ml penicillin, 100 μg/ml streptomycin and 2 mM glutamine. Cells from passage 23–36 were used throughout this study.
Amylase Assay. For amylase secretion, cells were washed free of medium with 2 ml phosphate buffered saline (PBS). Incubation was then carried out in DMEM containing 15 mM HEPES, 0.2% bovine serum albumin (BSA) and 0.01% soybean trypsin inhibitor. The hormones and reagents of interest were added for 50 min at 37° C. The incubation medium was then immediately removed for amylase determination and the cells were again washed in 2 ml ice-cold PBS. […] The released amylase was expressed as the percentage of the total amylase activity of the cells.

Assay [3] relates to rat acinar cells. Conditions: CCK alone vs 10^−8 M exendin-4 and CCK together; Malhotra et al. 1992; cited from earlier work.
Assay [4] has as its system AR42J cells. The assay can be described thus: Intracellular calcium in single AR42J cells (indo-1). It counts as cell-based, rat. The conditions noted are these: for AR42J cells showing [Ca2+]i response: CCK 1 nM. The method, then:
Measurement of intracellular calcium, [Ca^2+]l. AR42J cells were loaded with the fluorescent Ca^2+ probe, indo-1 acetoxymethyl ester (indo-1/AM). […] Both loading with indo-1 and the experiments were carried out at room temperature (22–24° C.). […] The emission field was restricted to a single cell. Indo-1 was excited at 350±5 nm every 5 ms, and the fluorescence emission was split into wavelength bands of 410±5 and 490±5 nm. […] The cell autofluorescence was assessed in a large number of indo-1 non-loaded cells from the same batch. […] Routinely, the cells were exposed to the test solution for 240–300s. Thereafter, the test solution was washed out, while [Ca^2+]l was monitored for additional 120–180s. The test solutions were prepared just prior to the experiment by adding the hormones in standard bathing solution.
On the technique in general: Calcium flux is commonly read through the fluorescence of an indicator in the cells.

The subject of assay [5] is AR42J cells. The assay can be described thus: Intracellular cAMP in AR42J cells. In kind it is cell-based, rat. Conditions: for intracellular cAMP levels: 1 h, GLP-1 0.1 to 100 nM, IBMX 100 nM, CCK 0.1 to 100 nM, exendin-4 0.1 to 10 nM. The protocol:
Measurement of cAMP. Cells were grown in 12-well dishes and treated with hormones and reagents±IBMX as described above. They were then washed 3 times in ice-cold PBS and lysed with 1 ml ice-cold […] perchloric acid. The lysates (950 μl) were transferred to microcentrifuge tubes and the pH adjusted to 7.0 using 5 M K2CO3. After centrifugation for 5 min at 10^4 rpm, the supernatant was vacuum dried, and then recovered in 200 μl Tris/EDTA buffer. After addition of 0.15 mM Na2CO3 (50 μl) and 0.15 mM ZnSO^4 (50 μl), followed by incubation for 15 min on ice, the salt precipitate was removed by centrifugation for 15 min at 3.5×10^3 rpm and 50 μl of supernatant was assayed using a cAMP [^3] assay kit (Amersham Corp., Arlington Heights, Ill.), (Steiner et al., 1972).
(In general: Changes in cAMP serve as a functional read-out for many G protein-coupled receptors.)

Assay [6] has as its system AR42J cells. The assay can be described thus: Amylase content and CCK response of AR42J cells after 72 h treatment. In kind it is cell-based, rat. The conditions noted are these: dexamethasone 72 h. The method, then:
Amylase Assay. For amylase determination, cells were washed free of medium with 2 ml PBS. Incubation was then carried out in DMEM containing 15 mM HEPES, 0.2% BSA and 0.01% soybean trypsin inhibitor. CCK (1 nM) was added for 50 min at 37° C. The incubation medium was then immediately removed for amylase determination and the cells were again washed in 2 ml ice-cold PBS. Lysate buffer containing (in mM) 130 Tris-HCl, 10 CaCl2, 75 NaCl, and 0.2% Triton X-100 (pH 8.0) was added to the cells and the lysates were then collected for total amylase (Ceska et al., 1969). The released amylase was expressed as the percentage of the total amylase in the cells.

Assay [7] deals with ERK. In words: MAP kinase (ERK) activity in AR42J cells. In kind it is cell-based, rat. Conditions: PKI 300 μM. The method, then: MAP Kinase Activity. After treatment, 60 mm dishes of 80% confluent cells were lysed at 4° C. in lysis buffer (in mM): 50 TRIS-HCl, PH 8, 150 NaCl, 5 EDTA, 1% NP-40, 0.25% sodium deoxycholate, 1 NaF, 10 sodium pyrophosphate, 0.1 PMSF, 1 sodium orthovanadate, 20 μg/ml aprotinin, and 10 μg/ml leupeptin. The cell lysate was clarified by centrifugation at 16,000×g at 4° C. for 20 min. The clarified cell lysate was immunoprecipitated overnight at 4° C., rotating with 4.5 μg of ERK1-CT antibody and 40 μl of packed protein G+protein A agarose resin (Oncogene Research Product, Cambridge, Mass.). The immune pellet was assayed for MAPK activity using MBP as the substrate. MBP (18.6 μg) was phosphorylated at 20° C. for 10 min in a final volume of 60 μl containing 20 mM Hepes, PH 7.4, 10 mM MgCl2, 1 mM DTT, 20 uM unlabeled ATP and 40 μCi (3,000 Ci/mmol) [^32P]-ATP. The reaction was terminated by the addition of 25 μl of 3× Laemmli sample buffer and heating at 70° C. for 10 min. MAPK activity was assessed by SDS-PAGE and auto-radiography. The autoradiograms were quantified by densitometry.

Assay [8] deals with AR42J cells. The assay can be described thus: Immunocytochemistry of insulin- and glucagon-positive AR42J cells. In kind it is cell-based, rat. The conditions noted are these: PD98059 50 μM or PKI 300 μM added concurrently with GLP-1. The protocol: Cell culture. AR42J cells were maintained in Dulbecco's modified Eagle's medium (DMEM) supplemented with 10% fetal calf serum (FBS), 100 IU/ml penicillin, 100 μg/ml streptomycin and 2 mM glutamine. Cells from passage 23–35 were used throughout this study. Cells were routinely plated at a density of about 10^5 cells/ml in 12-well cluster dishes or on coverslips and incubated in a humidified incubator at 37° C. with 95% air and 5% CO2.
Immunocytochemistry analysis. Cells were cultured on glass coverslips, washed with phosphate buffered saline (PBS) to remove serum, and fixed with 0.5% glutaraldehyde in PBS. Cells were permeabilized with 0.2% Triton X-100 for 5 min and the rest of the procedure was carried out at room temperature in a humidified chamber. Suction was used to remove reagents between each step but drying of specimens was avoided. Sufficient reagent was used to cover each specimen (approximately 1 or 2 drops was usually adequate). The coverslips were incubated in 0.3% H2O2 in PBS for 30 min to quench endogenous peroxidase activity and washed in PBS×3 times, followed by incubation with 2% goat serum in PBS for 30 min to block non-specific binding of IgG. Excess serum was removed by blotting. The specific primary polyclonal antisera (anti-insulin 1:300; anti-glucagon 1:300) were used. Antibody was diluted in PBS containing 1% goat serum. This was applied to the coverslip and incubated at room temperature for 1 h. The coverslips were washed ×3 times in PBS, each time for 5 min, then incubated with biotinylated second antibody for 1 h and washed ×3 times with PBS. Avidin-biotin-peroxidase complex in PBS was applied for 30 min. Immunoperoxidase labeling was performed with a Vectostain ABC kit (Vector Labs, Burlingame, Calif.). After extensive washing in PBS for 4–5 times (each 5 min), the coverslips were incubated in diaminobenzidine tetrahydrochloride (DAB) in PBS, with 0.01% hydrogen peroxide for 3 min. The reaction was stopped by washing the coverslips in PBS and examined under a light microscope. To confirm specific staining, samples incubated with preabsorbed primary antibody were used as negative control, and the insulin producing cell line RIN 1046-38 cells were used as positive control for our experiments. The avidin-biotin-peroxidase (ABC) procedure was performed according to methods known in the art (Hsu et al., 1981).

Assay [9] relates to AR42J cells. In words: Immunoreactive insulin release from treated AR42J cells (RIA). In kind it is cell-based, rat. Conditions: 200 μM PKI or PD98059 (50 μM). The protocol: Measurement of immunoreactive insulin. AR42J cells were cultured as before in 12-well cluster plates. When cells reached 60% confluence, they were treated with GLP-1 for 3 days. At the beginning of the experiments, an aliquot of the medium was taken in order to assay the insulin accumulation in the medium. Then the cells were twice washed with Kreb's Ringer Balanced Buffer (KRBB) and incubated in the same buffer containing 10 mM glucose for another 1 h. The medium was collected and kept at −20° C. until insulin levels were assayed by RIA (See Example 1; Wang et al., Endocrinology, 1995). The cells were washed with PBS and detached with 0.25% typsin and 0.02% EDTA. The cell pellet was collected and lysed with formic acid for protein determination by the Bradford method (Bradford, 1976), using bovine-globulin as standard.

[10] abbreviates: 50 min, glucagon 10 or 100 nM, GLP-1 10 nM, insulin 100 nM, 8-Br-cAMP 100 nM, vanadate 1 mM.

Read-outs that look alike come from different tables or passages of the source.

Turning to insulin: islet hormone, from Sigma, in [1], the “effect on protein tyrosine phosphorylation” value is given as “increased phosphorylation of 97 kDa band”. Also, the “effect on amylase release when given alone” value (from here on “effect on amylase release”) in assay [2] (setting [10]) is “did not influence amylase release”. In addition, in assay [2] (vanadate 1 mM), the “effect on CCK-induced amylase release” value was “did not influence amylase release”. The “basal or CCK (1 nM)-induced amylase release after pre-incubation” value in assay [2] (pre-incubation 8, 24, 48 or 72 h with GLP-1 (10 nM) and insulin (100 nM)) was “did not increase”.
Regarding “CCK: Cholecytokinin, stimulus of amylase release, from Sigma”, in [1], the “increase in tyrosine phosphorylation levels of 46, 66, 120 and 190 kDa proteins” value was ≥ 2 fold. The total amylase released in [3] is given as 12%. The “peak [Ca2+]i amplitude, increase over resting indo-1 fluorescence ratio (IFR)” value in assay [4] (single cells) was 2.5–3.5 fold. Besides, the “AR42J cells showing [Ca2+]i response” value in assay [4] (single cells, glucagon 10 nM) was 85%. Besides, in assay [2] (50 min, dexamethasone-induced AR42J cells), the “concentration of maximum stimulation of amylase release” value came to 10 nM. In addition, the “effect on amylase release” value in [2] (setting [10]) was “potent stimulus of amylase release”. Moreover, in assay [5], the “intracellular cAMP levels” value is “not altered”.
With `CC(C)Cn1c(=O)n(C)c(=O)c2[nH]cnc21` [IBMX], in assay [5], the “intracellular cAMP levels” value is on record as “not altered”.
Take glucagon: islet hormone, from Bachem: the “peak [Ca2+]i transient as percent of resting IFR level” value in assay [4] (glucagon 10 nM) was 200–250%. For the same compound, the “effect on time course of CCK-induced [Ca2+]i transients” value in assay [4] (glucagon 10 nM, 8-bromo-cAMP 0.1 μM for 60–300 sec) is “attenuated rate of rise and a very slow rate of relaxation”. Moreover, in assay [4] (single cells, glucagon 10 nM), the “AR42J cells showing [Ca2+]i response” value was 70%. For the same compound, in assay [2] (setting [10]), the “effect on amylase release” value is on record as “no effect”. Moreover, the “effect on CCK-induced amylase release” value in assay [2] (vanadate 1 mM) is given as “inhibited, but did not fully abolish”. For the same compound, the “increase in cAMP levels” value in assay [5] (glucagon 10 nM, presence and absence of CCK) amounted to 2 fold.
As for `C[C@@H]1C[C@H]2[C@@H]3CCC4=CC(=O)C=C[C@]4(C)[C@@]3(F)[C@@H](O)C[C@]2(C)[C@@]1(O)C(=O)CO` [dexamethasone, reference compound], the “increase in amylase content vs non-dexamethasone-treated cells” value in [6] is reported as 6.6 fold. Also, the “amylase content of cells” value in [6] (non-treated cells 1.88 U/l) is on record as 12.57 U/l.
Consider `[O]=[V]([O-])([O-])[O-]` [vanadate], for which, in [2], the “effect on amylase release” value was “increased significantly”. For the same compound, in [2] (vanadate 1 mM), the “effect on CCK-induced amylase release” value was “increased significantly”.
Consider `[F-].[Na+]` [NaF, sodium fluoride], for which, in assay [1], the “effect on protein tyrosine phosphorylation” value is listed as “increased”. In addition, the “effect on amylase release” value in assay [2] (setting [10]) is recorded as “did like-wise”.
For `CCCCCCCCCCCCCCCCOCC(CO)OC` (racemic) [PKI, 1-o-Hexadecyl-2-o-methyl-rac-glycerol, reference compound], the “MAPK activity with inhibitor alone” value in [7] was “decreased MAPK activity to less than that of control cells”. Moreover, the “effect on GLP-1-induced conversion of AR42J cells” value in assay [8] is “conversion of the cells did not occur”. In addition, the “insulin secretion of GLP-1-treated cells in presence of inhibitor” value in [9] is reported as “barely detected”.
Turning to `O=c1c(-c2ccc(O)cc2)coc2cc(O)cc(O)c12` [Genestein], the “effect on protein tyrosine phosphorylation” value in assay [1] is given as “decreased tyrosine phosphorylations induced by CCK”. In assay [2] (vanadate 1 mM), the “effect on CCK-induced amylase release” value is on record as “decreased”.
With `COc1cccc(-c2cc(=O)c3ccccc3o2)c1N` [PD98059, reference compound], the “effect on GLP-1-induced conversion of AR42J cells” value in assay [8] was “conversion of the cells did not occur”. Also, in [9], the “insulin secretion of GLP-1-treated cells in presence of inhibitor” value is reported as “barely detected”.
